Reference: patent US20020137779A1, “Use of L-2-oxothiazolidine-4-carboxylic acid for the treatment of type 2 diabetes” (Advanced Biochemicals Inc., priority 2001, published 2002)

Key:
pancreatic islet cells = experiment: insulin secretion of pancreatic islets isolated from mice, radioimmunoassay; assay type: cell-based, C57BL mouse
Protocol: First step; After isolating pancreatic islets from a C57BL mouse according to Lacy and Kotianovsky(Diabetes, 16, 35-39, 1967), the islets were incubated for 60 min. at 37°C. with 250 […] of L-2-oxothiazolidine-4-carboxylic acid alone or together with 2.8-25 mM of glucose, and insulin from the supernatant was measured by radioimmunoassay,
The isolation of pancreatic islets from a C57BL mouse(weight; 20 g, Samtako, Daejeon, Korea) was performed according to the method of Lacy and Kotianovsky et al.(Diabetes, 16; 35-39, 1967). The pancreas of ether-anesthetized mouse was distended by infusion with Hank's balanced salt solution(HBSS, GIBCO, USA) containing 1 mg/ml of collagenase (Sigma, USA) via common bile duct and isolated. The isolated pancreas was digested for 20 min at 37 C while stirring homogeneously. After removing acinar cells by washing with HBSS, pancreatic islets of similar size were collected under dissecting microscope. 2.8-25 mM of glucose(Sigma, USA) alone or together with 250 ^μM-[…] of L-2-oxothiazolidine-4-carboxylic acid were administered to the isolated 10 pancreatic islets in 100 ^μl of Krebs Ringer bicarbonate(Sigma, USA) buffer solution containing 10 mM of Hepes, the islets were incubated for 60 min. at 37 °C., and insulin in the supernatant, from which the pancreatic β-islet cells was removed, was measured. […]

[1] = test system: type 2 diabetes mice (C57BL/KsJ-db/db Jcl); experiment: blood glucose levels after oral administration for 1-4 weeks (Example 4); assay type: in vivo, mouse; settings: for duration of the blood glucose lowering effect: after glucose intake
Protocol: The chemical L-2-oxothiazolidine-4-carboxylic acid was orally administered to diabetes mice(C57BL/KsJ-db/db Jcl) with a single dose of 3.0-400 mg/kg once in the state of empty stomach or 40-80 mg/kg twice a day for 1-4 weeks continuously.
(§1) Seven week old type 2 diabetes mice were maintained as in EXAMPLE 2. 0.2 ml of PBS (pH 7.4) was given to a control group twice a day for 1-4 weeks, and 40-80 mg/kg of L-2-oxothiazolidine-4-carboxylic acid dissolved in 0.2 ml of PBS of which pH was adjusted to 7.4 with 3 N NaOH(Junsei, Japan) was orally administered to an experimental group.
The results of blood glucose levels shown in FIG. 7 were obtained, after 40-80 mg/kg of L-2-oxothiazolidine-4-carboxylic acid was administered to type 2 diabetes mice twice a day for two weeks and after glucose was subsequently given, as described in […]

[2] = body weight during four weeks of oral administration (Example 4); assay type: in vivo, mouse; settings: 40-80 mg/kg orally for four weeks; measured at one, two and four week points
Protocol: as §1

[3] = test system: pancreatic islets of type 2 diabetes mice; experiment: morphological examination of pancreatic islets, hematoxylin-eosine and anti-insulin immunohistochemistry (Example 6); assay type: in vivo, mouse; settings: 80 mg/kg for four weeks, 120 min after glucose 1 g/kg i.p.
Protocol: Sixth step: Identifying the ability of insulin secretion of the control group and the type 2 diabetes mouse to which 80 mg/kg of L-2-oxothiazolidine-4-carboxylic acid for 4 weeks determined by immunohistochemical staining with anti-insulin antibody.
L-2-oxothiazolidine-4-carboxylic acid or PBS alone was administered to 3 mice in each group, 1 g/kg of glucose was intraperitoneally injected in the fasted state, and they were sacrificed by cervical dislocation after 120 min. of the injection. Immediately, the abdominal region was incised, pancreases were then removed from the mice and fixed more than 12 hours in a cold solution of 4% paraformaldehyde in PBS(pH 7.4, Sigma, USA). Pancreas separated free of intestine and adipose tissue(fatty tissue), rinsed three times with fresh fixing solution, and the fixed tissues were processed routinely for paraffin embedding. The tissue sections were cut off at 5 ^μm interval using microtome(Sandon, Germany) from the paraffin embedding, and adhered to a slide coated with poly-L-lysine(Sigma, USA) for immunohistochemistry.
To remove the paraffin from the slides on which pancreatic tissue was coated, the slides were repeatedly treated with xylene for 5 min., and the tissue sections were rehydrated with a series of 100-70% alcohol and incubated with PBS(pH 7.4) for 5 minutes. […]

[4] = ED50 by linear regression method; assay type: in vivo; settings: calculated by linear regression method; read-out: ED50 (50% of maximum effective dose)
From the text: ED50 is defined as 50% of maximum effective dose calculated by linear regression method. The term “treat” refers to the ability of the compounds to either relieve, alleviate, or slow the progression of the patient's disease.

mice = mice pre-treated with L-2-oxothiazolidine-4-carboxylic acid, acetaminophen 9.5 mmol/kg oral; cited from earlier work
[5] = 40 mg/kg for one week, 60 min after glucose intake
[6] = 40 mg/kg for two weeks, 60 min after glucose addition
[7] = 40 mg/kg for two weeks, 120 min after glucose intake
[8] = 80 mg/kg for four weeks, 120 min after glucose intake
[9] = 80 mg/kg for four weeks, fasted state (13 hours)
[10] = 80 mg/kg for one week, 60 min after glucose intake
[11] = 80 mg/kg for one week, 120 min after glucose intake
[12] = 80 mg/kg for one week, fasted state (13 hours)
[13] = 80 mg/kg for two weeks, 60 min after glucose addition
[14] = 80 mg/kg for two weeks, 120 min after glucose intake

Which “insulin secretion of pancreatic islet cells” value (pancreatic islet cells; 500 μM−2 mM OTC in the presence of 17.5 mM glucose, 60 min at 37°C) does the source give for `O=C1NC(C(=O)O)CS1` [OTC, L-2-oxothiazolidine-4-carboxylic acid] here?
The value was “increased insulin secretion in a dose-dependent manner”.

And the “glucose dependence of the stimulation of insulin secretion from pancreatic islets” value (pancreatic islet cells; OTC 500 μM-2 mM)?
The value was “the presence of glucose is required for the stimulation of insulin secretion”.

And the blood glucose level ([1]; 40 mg/kg for four weeks, 180 min after glucose intake)?
Its blood glucose level is 50.50 ± 44.21 mg/dL.

What about the blood glucose level [1, 5] of the same molecule?
The blood glucose level was 507.50 ± 52.81 mg/dL.

What about the “decrease of blood glucose level vs control group” value (from here on “decrease of blood glucose level”) [1, 5] of the same molecule?
Its value is 16.8%.

What about the blood glucose level [1, 6] of the same molecule?
The blood glucose level was 699.00 ± 58.91 mg/dL.

And the “lowering effect of blood glucose levels compared to the control group” value [1, 6]?
The value was 15.83%.

And the blood glucose level [1, 7]?
The blood glucose level was 599.50 ± 52.46 mg/dL.

And the “lowering effect of blood glucose levels compared to the control group” value [1, 7]?
The value was 22.2%.

What about the blood glucose level ([1]; 40 mg/kg for two weeks, fasted for 13 hours) of the same molecule?
Its blood glucose level is 306.30 ± 24.06 mg/dL.

What about the blood glucose level [1, 8] of the same molecule?
The blood glucose level was 539 ± 23.60 mg/dL.

And the “lowering effect of blood glucose levels compared to the control group” value [1, 8]?
Its value is 38.8%.

What about the blood glucose level [1, 9] of the same molecule?
The blood glucose level was 297.00 ± 26.51 mg/dL.

And the “more effective in lowering blood glucose levels than the control group” value [1, 9]?
The value was 32.5%.

And the blood glucose level [1, 10]?
Its blood glucose level is 277.50 ± 40.89 mg/dL.

And the “decrease of blood glucose level” value [1, 10]?
Its value is 54.51%.

And the blood glucose level [1, 11]?
The blood glucose level was 158.00 ± 28.33 mg/dL.

And the “decrease of blood glucose level” value [1, 11]?
Its value is 72.11%.

What about the blood glucose level [1, 12] of the same molecule?
Its blood glucose level is 116.00 ± 119.74 mg/dL.

What about the “blood glucose level relative to the control group” value [1, 12] of the same molecule?
Its value is 52.07%.

What about the blood glucose level [1, 13] of the same molecule?
Its blood glucose level is 477.50 ± 58.91 mg/dL.

And the “blood glucose level relative to the control group” value [1, 13]?
Its value is 42.50%.

What about the blood glucose level [1, 14] of the same molecule?
Its blood glucose level is 398.00 ± 28.33 mg/dL.

What about the “lowering effect of blood glucose levels compared to the control group” value [1, 14] of the same molecule?
Its value is 48.81%.

What about the blood glucose level ([1]; 80 mg/kg for two weeks, fasted for 13 hours) of the same molecule?
The blood glucose level was 301.50 ± 12.2 mg/dL.

What about the “duration of the blood glucose lowering effect” value ([1]; 40-80 mg/kg for four weeks) of the same molecule?
Its value is “about 180 min”.

What about the “duration of the blood glucose lowering effect” value ([1]; 40-80 mg/kg for one week) of the same molecule?
The value was “about 180 minutes”.

And the “duration of the blood glucose lowering effect” value ([1]; 40-80 mg/kg for two weeks)?
Its value is “about 180 min”.

What about the “increase of lowering effect of blood glucose levels compared to the control group” value ([1]; 40-80 mg/kg for two weeks, fasted for 13 hours) of the same molecule?
Its value is 11.5%.

What about the “weight of the mice” value [2] of the same molecule?
Its value is “no weight difference”.

And the “densities of the capsule and the β-cells in the capsule, hematoxylin-eosine staining” value [3]?
Its value is “high”.

And the “positive response to anti-insulin antibody of pancreatic β-islet cells” value [3]?
The value was “distinctly increased”.

And the ED50 [4]?
Its ED50 is 15 mg/kg.

And the mortality rate (mice)?
Its mortality rate is “less than 10%”.
